Assay results taken from PubChem BioAssay AID1963978 (Molecular Pharmacology Branch, DTP, NCI, 2024).

System: 616215-338-R-J1-PDC spheroids with HUVEC/MSC, viability
Assay: Anticancer human tumor 616215-338-R-J1-PDC patient-derived colon adenocarcinoma cell line growth inhibition [PI3K]
Settings: for viability, T/C: stronger effect = lower value
Source text: Combinatorial screen of targeted agents with the PI3K inhibitors inavolisib, alpelisib, duvelisib, and copanlisib in multi-cell type tumor spheroids
A high-throughput screen of multi-cell type tumor spheroids was designed to identify active combinations of targeted small molecules and PI3K pathway inhibitors. Complex spheroids include a stromal component modeled by human endothelial cells (HUVEC) and fibroblasts modeled by human mesenchymal stem cells (MSCs). The concentration ranges selected for each drug and investigational agent were based upon clinically achievable concentrations if the clinical Cmax of the agent was known.
Compounds. The drugs and investigational agents: inavolisib (NSC800729), alpelisib (NSC765974), duvelisib (NSC772469), copanlisib (NSC816437), ipatasertib (NSC767898), afuresertib (NSC778305), talazoparib (NSC767125), sapanisertib (NSC764658), selumetinib (NSC741078), tovorafenib (DAY101, NSC766906), vemurafenib (NSC761431), ravoxertinib (NSC781343), sotorasib (NSC818433), MRTX1133 (NSC 836407), abemaciclib (NSC 768073), palbociclib (NSC758247), venetoclax (NSC 766270), SY5609 (NSC837396), enzalutamide (NSC755605), and darolutamide (NSC825331), were obtained from the National Cancer Institute (NCI) Developmental Therapeutics Program Chemical Repository. The FDA-approved anticancer drug set is available from the NCI Developmental Therapeutics Program. […] The stock solutions were prepared in dimethyl sulfoxide (DMSO, Sigma-Aldrich, St. Louis, MO, cat. D2650) at 800-fold the tested concentration and stored at -70 degrees C prior to their use. All drugs and investigational agents were tested over a range starting from a high concentration at or near the clinical Cmax and decreasing in half-log increments. If the clinical Cmax for an agent had not been determined, the highest concentration tested was 10 microM.
Cell Culture. All cells were maintained in an incubator at 37 degrees C and 5% CO2 with 95% humidity. The PDC lines were cultured according to standard operating procedures established by the NCI PDMR (https://pdmr.cancer.gov/sops/default.htm). All PDCs were thawed and cultured in Matrigel-coated flasks prepared with a working solution of 1X Ham's F-12 nutrient mix, without supplementation (Invitrogen, Waltham, MA, cat. 11765054), 100 U/mL penicillin-streptomycin (Invitrogen, cat. 15140122), and 2.5% Matrigel (Corning Inc., Corning, NY, cat. 354248) for the first three passages. The 354836-022-R-J1-PDC, 475296-252-R-J1-PDC, and 997726-040-R-J2-PDC lines were cultured in 6A media, which includes advanced DMEM/F-12 (Thermo Fisher Scientific, cat. 12634028), 10 mM HEPES (Thermo Fisher Scientific, cat. 15630080), 1X GlutaMAX supplement (Thermo Fisher Scientific, cat. 35050061), 0.1 mg/mL primocin (InvivoGen, San Diego, CA, cat. ant-pm-2), 10% defined fetal bovine serum, heat inactivated (HyClone Laboratories Inc., Logan, UT, cat. SH30070.03HI), 50% L-WRN conditioned media (ATCC, cat. CRL-3276), 1.25 mM N-Acetyl-L-cysteine (Sigma-Aldrich, cat. A9165), 10 mM nicotinamide (Sigma-Aldrich, cat. N0636), 1X B-27 supplement (Thermo Fisher Scientific, cat. 17504044), 1X N-2 supplement (Thermo Fisher Scientific, cat. 17502048), and 10 microM Y-27632 dihydrochloride (Tocris Bioscience, Bristol, United Kingdom, cat. 1254). The 624824-186-R-J2-PDC line was cultured in 6C/Colon 1B media, which includes all 6A media components plus 50 ng/mL human EGF recombinant protein (Thermo Fisher Scientific, cat. PHG0311). […]

[1] = curve of first compound, second compound 0.0316 µM
[2] = curve of first compound, second compound 0.1 µM
[3] = curve of first compound, second compound 0.316 µM
[4] = curve of first compound, second compound 1 µM
[5] = second compound 0.0316 µM, first compound 0.0316 µM
[6] = second compound 0.0316 µM, first compound 0.1 µM
[7] = second compound 0.1 µM, first compound 0.0316 µM
[8] = second compound 0.1 µM, first compound 0.1 µM
[9] = second compound 0.316 µM, first compound 0.0316 µM
[10] = second compound 0.316 µM, first compound 0.1 µM
[11] = second compound 1 µM, first compound 0.0316 µM
[12] = second compound 1 µM, first compound 0.1 µM
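Also: spheroids exposed to agents for seven days before the viability read.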

With `CC(C)n1nc(-c2ccc3oc(N)nc3c2)c2c(N)ncnc21` + COc1c(OCCCN2CCOCC2)ccc2c3n(c(=NC(=O)c4cnc(N)nc4)nc12)CCN3 the IC50 (curve of first compound, second compound 0.00316 µM) was > 0.1 µM, the IC50 (curve of first compound, second compound 0.01 µM) was > 0.1 µM and the IC50 [1] was 0.0803 µM. The IC50 [2] was 0.0262 µM, the IC50 [3] was < 0.000316 µM and the IC50 [4] was < 0.000316 µM. For the same compound, the viability, T/C (second compound 0.00316 µM, first compound 0.000316 µM) was 104%, the viability, T/C (second compound 0.00316 µM, first compound 0.001 µM) was 109% and the viability, T/C (second compound 0.00316 µM, first compound 0.00316 µM) was 97.4%. It also gave a viability, T/C (second compound 0.00316 µM, first compound 0.01 µM) of 105%, a viability, T/C (second compound 0.00316 µM, first compound 0.0316 µM) of 116% and a viability, T/C (second compound 0.00316 µM, first compound 0.1 µM) of 65.6%. The viability, T/C (second compound 0.01 µM, first compound 0.000316 µM) was 104%, the viability, T/C (second compound 0.01 µM, first compound 0.001 µM) was 100% and the viability, T/C (second compound 0.01 µM, first compound 0.00316 µM) was 103%. The viability, T/C (second compound 0.01 µM, first compound 0.01 µM) was 108%, the viability, T/C (second compound 0.01 µM, first compound 0.0316 µM) was 122% and the viability, T/C (second compound 0.01 µM, first compound 0.1 µM) was 67.2%. For the same compound, the viability, T/C (second compound 0.0316 µM, first compound 0.000316 µM) was 106%, the viability, T/C (second compound 0.0316 µM, first compound 0.001 µM) was 99.2% and the viability, T/C (second compound 0.0316 µM, first compound 0.00316 µM) was 117%. The viability, T/C (second compound 0.0316 µM, first compound 0.01 µM) was 117%, the viability, T/C [5] was 97.3% and the viability, T/C [6] was 39%. The viability, T/C (second compound 0.1 µM, first compound 0.000316 µM) was 96.2%, the viability, T/C (second compound 0.1 µM, first compound 0.001 µM) was 102% and the viability, T/C (second compound 0.1 µM, first compound 0.00316 µM) was 88.9%. The viability, T/C (second compound 0.1 µM, first compound 0.01 µM) was 68.7%, the viability, T/C [7] was 47.7% and the viability, T/C [8] was 30.1%. It also gave a viability, T/C (second compound 0.316 µM, first compound 0.000316 µM) of 37.9%, a viability, T/C (second compound 0.316 µM, first compound 0.001 µM) of 42.1% and a viability, T/C (second compound 0.316 µM, first compound 0.00316 µM) of 34.9%. For the same compound, the viability, T/C (second compound 0.316 µM, first compound 0.01 µM) was 45.2%, the viability, T/C [9] was 35.5% and the viability, T/C [10] was 22.1%. The viability, T/C (second compound 1 µM, first compound 0.000316 µM) was 24.3%, the viability, T/C (second compound 1 µM, first compound 0.001 µM) was 29.1% and the viability, T/C (second compound 1 µM, first compound 0.00316 µM) was 25.1%. The viability, T/C (second compound 1 µM, first compound 0.01 µM) was 27.8%, the viability, T/C [11] was 30.1% and the viability, T/C [12] was 13.2%.
In the case of `CC(C)NCC(C(=O)N1CCN(c2ncnc3c2C(C)CC3O)CC1)c1ccc(Cl)cc1` (stereo unspecified) + Cc1nc(NC(=O)N2CCCC2C(N)=O)sc1-c1ccnc(C(C)(C)C(F)(F)F)c1, the IC50 [1] is reported as 8.82 µM, the IC50 [2] is reported as 8.31 µM and the IC50 [3] is reported as 7.19 µM. It also gave an IC50 [4] of 7.82 µM, an IC50 (curve of first compound, second compound 3.16 µM) of 7.42 µM and an IC50 (curve of first compound, second compound 10 µM) of 4.35 µM. The viability, T/C [5] was 97.2%, the viability, T/C [6] was 91.6% and the viability, T/C (second compound 0.0316 µM, first compound 0.316 µM) was 91.8%. It also gave a viability, T/C (second compound 0.0316 µM, first compound 1 µM) of 98.3%, a viability, T/C (second compound 0.0316 µM, first compound 3.16 µM) of 91.8% and a viability, T/C (second compound 0.0316 µM, first compound 10 µM) of 44.9%. For the same compound, the viability, T/C [7] was 89.5%, the viability, T/C [8] was 87.4% and the viability, T/C (second compound 0.1 µM, first compound 0.316 µM) was 92.8%. It also gave a viability, T/C (second compound 0.1 µM, first compound 1 µM) of 105%, a viability, T/C (second compound 0.1 µM, first compound 3.16 µM) of 90.1% and a viability, T/C (second compound 0.1 µM, first compound 10 µM) of 42%. It also gave a viability, T/C [9] of 103%, a viability, T/C [10] of 92.9% and a viability, T/C (second compound 0.316 µM, first compound 0.316 µM) of 98.7%. It also gave a viability, T/C (second compound 0.316 µM, first compound 1 µM) of 104%, a viability, T/C (second compound 0.316 µM, first compound 3.16 µM) of 70.8% and a viability, T/C (second compound 0.316 µM, first compound 10 µM) of 41.6%. The viability, T/C [11] was 98.9%, the viability, T/C [12] was 97.6% and the viability, T/C (second compound 1 µM, first compound 0.316 µM) was 95.6%. It also gave a viability, T/C (second compound 1 µM, first compound 1 µM) of 101%, a viability, T/C (second compound 1 µM, first compound 3.16 µM) of 84.9% and a viability, T/C (second compound 1 µM, first compound 10 µM) of 39.8%. It also gave a viability, T/C (second compound 3.16 µM, first compound 0.0316 µM) of 111%, a viability, T/C (second compound 3.16 µM, first compound 0.1 µM) of 101% and a viability, T/C (second compound 3.16 µM, first compound 0.316 µM) of 102%. The viability, T/C (second compound 3.16 µM, first compound 1 µM) was 90.4%, the viability, T/C (second compound 3.16 µM, first compound 3.16 µM) was 71.4% and the viability, T/C (second compound 3.16 µM, first compound 10 µM) was 42.2%. It also gave a viability, T/C (second compound 10 µM, first compound 0.0316 µM) of 96%, a viability, T/C (second compound 10 µM, first compound 0.1 µM) of 95.3% and a viability, T/C (second compound 10 µM, first compound 0.316 µM) of 91.6%. For the same compound, the viability, T/C (second compound 10 µM, first compound 1 µM) was 79.2%, the viability, T/C (second compound 10 µM, first compound 3.16 µM) was 57.8% and the viability, T/C (second compound 10 µM, first compound 10 µM) was 30.3%.
In the case of `Cn1nccc1Nc1nccc(-c2ccn(C(CO)c3ccc(Cl)c(F)c3)c(=O)c2)n1` (stereo unspecified), the viability, T/C (compound 0.0316 µM) is reported as 96.3% [middle of 4 runs], the viability, T/C (compound 0.1 µM) is reported as 101% [middle of 4 runs] and the viability, T/C (compound 0.316 µM) is reported as 90.4% [middle of 4 runs]. For the same compound, the viability, T/C (compound 1 µM) was 66.4% [middle of 4 runs], the viability, T/C (compound 3.16 µM) was 56.4% [middle of 4 runs] and the viability, T/C (compound 10 µM) was 40.1% [middle of 4 runs]. The IC50 (curve of compound) was 3.91 µM [middle of 4 runs].
